Measured values reported in PubChem BioAssay (NCI).
“And” between values parts separate entries of the source, which are not always exact repeats. Identical values can stand only once.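 The compound was tested at five concentrations on cells cultured in 96-well plates, with a 48-hour exposure period. Here, GI50 denotes the concentration required for 50% inhibition of growth. TGI marks complete inhibition of growth.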

Tests used:
Test in all cases: DTP human tumour cell line panel, 48 h
786-0 renal = test system: 786-0 renal
HOP-18 NSCLC = test system: HOP-18 NSCLC
HOP-62 NSCLC = test system: HOP-62 NSCLC
HT29 colon = test system: HT29 colon
MALME-3M melanoma = test system: MALME-3M melanoma
OVCAR-4 ovarian = test system: OVCAR-4 ovarian
RPMI-8226 leukemia = test system: RPMI-8226 leukemia
SNB-19 CNS = test system: SNB-19 CNS
TK-10 renal = test system: TK-10 renal

With `CC(=O)OCC1OC(OC2CC3C(C)(C)C(O)CC[C@]3(C)C3CCC45CC4(CC[C@H]5C(C)CC(O)C4OC4(C)C)[C@]23C)C(O)C(O)C1O` (some centres undefined) the GI50 (786-0 renal) was 5.67 µM, the TGI (786-0 renal) was 14.9 µM and 18.9 µM and the GI50 (HOP-18 NSCLC) was 5.27 µM. The TGI (HOP-18 NSCLC) was 13.6 µM and 17.5 µM, the GI50 (HOP-62 NSCLC) was 14.2 µM and the TGI (HOP-62 NSCLC) was 19.1 µM and 29.5 µM. For the same compound, the GI50 (HT29 colon) was 12.9 µM, the TGI (HT29 colon) was 15.7 µM and 27.7 µM and the GI50 (MALME-3M melanoma) was 4.52 µM. For the same compound, the TGI (MALME-3M melanoma) was 16.5 µM and 20.8 µM, the GI50 (OVCAR-4 ovarian) was 13.9 µM and the TGI (OVCAR-4 ovarian) was 15.8 µM and 30.7 µM. For the same compound, the GI50 (RPMI-8226 leukemia) was 2.49 µM, the TGI (RPMI-8226 leukemia) was 2.41 µM and 7.16 µM and the GI50 (SNB-19 CNS) was 5.14 µM. The TGI (SNB-19 CNS) was 15 µM and 16.9 µM, the GI50 (TK-10 renal) was 15.2 µM and the TGI (TK-10 renal) was 15.7 µM and 29.5 µM.
`NC(=O)C(c1ccccc1)N1CCOCC1` (centres undefined) gave a TGI (786-0 renal) of over 100 µM, a TGI (HOP-18 NSCLC) of over 100 µM and a TGI (HOP-62 NSCLC) of over 100 µM. The TGI (HT29 colon) was over 100 µM, the TGI (MALME-3M melanoma) was over 100 µM and the TGI (OVCAR-4 ovarian) was over 100 µM. For the same compound, the TGI (RPMI-8226 leukemia) was over 100 µM and the TGI (TK-10 renal) was over 100 µM.
`c1ccc2c(c1)[nH]c1cnc3c4cccnc4[nH]c3c12` gave a TGI (786-0 renal) of 31.7 µM, a TGI (HOP-18 NSCLC) of 36.7 µM and a TGI (HOP-62 NSCLC) of 96.1 µM. The TGI (HT29 colon) was 34.6 µM, the TGI (MALME-3M melanoma) was 49 µM and the TGI (OVCAR-4 ovarian) was 32.6 µM. The TGI (RPMI-8226 leukemia) was 58.5 µM, the TGI (SNB-19 CNS) was 37.3 µM and the TGI (TK-10 renal) was 26.1 µM.
With `COc1ccccc1NC(=O)C1=C(C)NC(C)=C(C(=O)Nc2ccccc2OC)C1c1ccc(C)cc1` the TGI (786-0 renal) was over 100 µM, the TGI (HOP-18 NSCLC) was over 100 µM and the TGI (HOP-62 NSCLC) was over 100 µM. It also gave a TGI (HT29 colon) of over 100 µM, a TGI (MALME-3M melanoma) of over 100 µM and a TGI (OVCAR-4 ovarian) of over 100 µM. For the same compound, the TGI (RPMI-8226 leukemia) was over 100 µM, the TGI (SNB-19 CNS) was over 100 µM and the TGI (TK-10 renal) was over 100 µM.
`CC1=CCC23C(C1)OC(Br)(C=CC2(C)O)C3(C)C` (centres undefined) gave a TGI (786-0 renal) of over 100 µM, a TGI (HOP-18 NSCLC) of over 100 µM and a TGI (HT29 colon) of over 100 µM. For the same compound, the TGI (MALME-3M melanoma) was over 100 µM, the TGI (OVCAR-4 ovarian) was over 100 µM and the TGI (TK-10 renal) was over 100 µM.
In the case of `O=C(CCl)N1c2ccccc2Sc2ccc3ccccc3c21`, the GI50 (786-0 renal) is reported as 1.44 µM, the TGI (786-0 renal) is reported as 3.03 µM and the GI50 (HOP-62 NSCLC) is reported as 1.63 µM. It also gave a TGI (HOP-62 NSCLC) of 3.05 µM, a GI50 (HT29 colon) of 1.28 µM and a TGI (HT29 colon) of 4.58 µM. The GI50 (MALME-3M melanoma) was 0.352 µM, the TGI (MALME-3M melanoma) was 1.32 µM and the GI50 (OVCAR-4 ovarian) was 0.659 µM. The TGI (OVCAR-4 ovarian) was 2.9 µM, the GI50 (RPMI-8226 leukemia) was 1.32 µM and the TGI (RPMI-8226 leukemia) was 4.06 µM. The GI50 (SNB-19 CNS) was 1.58 µM, the TGI (SNB-19 CNS) was 3.09 µM and the GI50 (TK-10 renal) was 1.54 µM. It also gave a TGI (TK-10 renal) of 2.92 µM.
With `CCOC(=O)/C=C/C(C(=O)/C=C/c1ccc(O)c(OC)c1)=C(O)\C=C\c1ccc(O)c(OC)c1` the GI50 (786-0 renal) was 1.98 µM, the TGI (786-0 renal) was 6.68 µM and the GI50 (HOP-62 NSCLC) was 3.19 µM. For the same compound, the TGI (HOP-62 NSCLC) was 16.1 µM, the GI50 (HT29 colon) was 1.83 µM and the TGI (HT29 colon) was 6.6 µM. The GI50 (MALME-3M melanoma) was 9.93 µM, the TGI (MALME-3M melanoma) was over 100 µM and the GI50 (OVCAR-4 ovarian) was 7.36 µM. It also gave a TGI (OVCAR-4 ovarian) of 25.7 µM, a GI50 (RPMI-8226 leukemia) of 2.6 µM and a TGI (RPMI-8226 leukemia) of 7.23 µM. It also gave a GI50 (SNB-19 CNS) of 5.14 µM, a TGI (SNB-19 CNS) of 27.2 µM and a GI50 (TK-10 renal) of 5.3 µM. The TGI (TK-10 renal) was 29.2 µM.
In the case of `O=C(O)c1cc2cc(OCc3ccccc3)c(OCc3ccccc3)cc2[nH]1`, the GI50 (786-0 renal) is reported as 22.7 µM, the TGI (786-0 renal) is reported as 48.4 µM and the GI50 (HOP-62 NSCLC) is reported as 16.4 µM. For the same compound, the TGI (HOP-62 NSCLC) was 52.4 µM, the GI50 (HT29 colon) was 29.5 µM and the TGI (HT29 colon) was 59.6 µM. The GI50 (MALME-3M melanoma) was 25.9 µM, the TGI (MALME-3M melanoma) was 72.6 µM and the GI50 (OVCAR-4 ovarian) was 34.9 µM. The TGI (OVCAR-4 ovarian) was over 100 µM, the GI50 (RPMI-8226 leukemia) was 23 µM and the TGI (RPMI-8226 leukemia) was 68.4 µM. It also gave a GI50 (SNB-19 CNS) of 32.1 µM, a TGI (SNB-19 CNS) of over 100 µM and a GI50 (TK-10 renal) of 24 µM. It also gave a TGI (TK-10 renal) of 70.6 µM.
`Cc1cc(Cc2cc(C)cc(C(C)(C)C)c2O)c(O)c(C(C)(C)C)c1` gave a GI50 (786-0 renal) of 11 µM, a TGI (786-0 renal) of 23 µM and a GI50 (HOP-62 NSCLC) of 14.1 µM. For the same compound, the TGI (HOP-62 NSCLC) was 27.1 µM, the GI50 (HT29 colon) was 4.58 µM and the TGI (HT29 colon) was 15.6 µM. It also gave a GI50 (MALME-3M melanoma) of 5.3 µM, a TGI (MALME-3M melanoma) of 20 µM and a GI50 (OVCAR-4 ovarian) of 11.6 µM. For the same compound, the TGI (OVCAR-4 ovarian) was 23.9 µM, the GI50 (RPMI-8226 leukemia) was 7.55 µM and the TGI (RPMI-8226 leukemia) was 57.2 µM. For the same compound, the GI50 (SNB-19 CNS) was 13.1 µM, the TGI (SNB-19 CNS) was 25.8 µM and the GI50 (TK-10 renal) was 8.22 µM. The TGI (TK-10 renal) was 21.3 µM.
